Assay [1] addresses T1, AXL (Homo sapiens, UniProt P30530).
T1 sequence (P30530 26-894): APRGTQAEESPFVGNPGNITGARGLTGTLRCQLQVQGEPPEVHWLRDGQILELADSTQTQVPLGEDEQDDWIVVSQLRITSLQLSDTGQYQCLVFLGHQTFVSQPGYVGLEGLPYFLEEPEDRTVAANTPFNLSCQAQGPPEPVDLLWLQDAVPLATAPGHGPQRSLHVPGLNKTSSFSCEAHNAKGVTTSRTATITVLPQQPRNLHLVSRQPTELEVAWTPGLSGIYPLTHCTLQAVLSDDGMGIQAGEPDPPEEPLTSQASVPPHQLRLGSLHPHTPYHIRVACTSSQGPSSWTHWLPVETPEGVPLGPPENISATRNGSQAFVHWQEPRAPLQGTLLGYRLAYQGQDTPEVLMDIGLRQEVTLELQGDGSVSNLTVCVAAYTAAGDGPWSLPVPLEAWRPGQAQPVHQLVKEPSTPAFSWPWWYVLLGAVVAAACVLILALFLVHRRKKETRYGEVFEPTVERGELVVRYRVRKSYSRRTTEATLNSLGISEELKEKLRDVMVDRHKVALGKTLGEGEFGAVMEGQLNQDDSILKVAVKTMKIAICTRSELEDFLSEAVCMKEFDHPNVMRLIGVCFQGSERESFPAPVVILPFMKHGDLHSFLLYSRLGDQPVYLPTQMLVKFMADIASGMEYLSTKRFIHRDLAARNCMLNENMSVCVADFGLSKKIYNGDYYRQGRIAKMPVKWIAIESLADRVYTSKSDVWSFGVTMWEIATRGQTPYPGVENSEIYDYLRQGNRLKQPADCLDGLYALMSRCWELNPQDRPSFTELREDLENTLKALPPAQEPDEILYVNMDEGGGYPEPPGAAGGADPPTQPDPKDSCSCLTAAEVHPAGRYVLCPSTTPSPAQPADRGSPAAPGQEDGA
Kind of assay: TR-FRET kinase activity assay, AXL. It is filed as biochemical. The conditions noted are these: ATP at Km, 60 minutes. Put shortly:
(§1)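 IC50 came from TR-FRET signal after 30 min dark development with a Europium-labeled phospho-specific antibody. This followed a 60 min RT reaction, stopped with EDTA, started with ATP at Km per enzyme. Peptide substrate, enzyme and compound were premixed in HEPES pH 7.5 buffer with MgCl2, EGTA, Brij 35 and DTT.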

In assay [2] the target is T2, TYRO3 (Homo sapiens, UniProt Q06418).
T2 sequence (Q06418 41-890): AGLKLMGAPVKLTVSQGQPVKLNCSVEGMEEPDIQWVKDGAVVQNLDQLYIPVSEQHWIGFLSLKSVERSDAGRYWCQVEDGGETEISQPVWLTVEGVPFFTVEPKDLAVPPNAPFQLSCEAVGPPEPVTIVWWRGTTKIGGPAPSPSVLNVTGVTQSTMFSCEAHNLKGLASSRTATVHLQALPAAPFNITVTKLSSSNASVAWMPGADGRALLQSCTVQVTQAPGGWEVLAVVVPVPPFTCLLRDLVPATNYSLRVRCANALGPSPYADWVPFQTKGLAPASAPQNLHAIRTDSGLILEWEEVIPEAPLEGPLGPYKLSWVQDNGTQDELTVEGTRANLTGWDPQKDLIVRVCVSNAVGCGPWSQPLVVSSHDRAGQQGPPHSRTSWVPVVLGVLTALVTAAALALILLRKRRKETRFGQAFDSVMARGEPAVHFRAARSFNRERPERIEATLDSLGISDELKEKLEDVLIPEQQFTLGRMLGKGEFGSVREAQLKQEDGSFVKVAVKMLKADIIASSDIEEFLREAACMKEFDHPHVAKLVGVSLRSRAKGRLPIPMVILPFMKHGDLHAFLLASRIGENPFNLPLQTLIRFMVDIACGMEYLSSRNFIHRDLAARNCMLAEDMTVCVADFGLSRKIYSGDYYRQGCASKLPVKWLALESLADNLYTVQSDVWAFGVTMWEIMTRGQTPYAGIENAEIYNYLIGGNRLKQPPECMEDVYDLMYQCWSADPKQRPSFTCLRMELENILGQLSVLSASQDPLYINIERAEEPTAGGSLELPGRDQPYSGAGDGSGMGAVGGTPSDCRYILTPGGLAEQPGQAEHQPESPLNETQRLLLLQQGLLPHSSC
The assay is described as follows: TR-FRET kinase activity assay, TYRO3. It is filed as biochemical. The note with it: ATP at Km, 60 minutes. A digest of the protocol: as §1
In general terms: In TR-FRET formats the signal depends on donor and acceptor labels being close together.

What is called IC50 is the concentration that gives 50% inhibition. As to `COC[C@H](C)Nc1ncc2c(O[C@@H]3CCN(C)C(C)(C)C3)ncc([C@H]3CC[C@H](O)CC3)c2n1` [Compound 385], the IC50 is 100 to 1000 nM in assay [1] and at most 100 nM in assay [2].

Consider `C[C@@H](CC(F)(F)F)Nc1ncc2c(OC3CC(C)(C)N(C)C(C)(C)C3)ncc([C@H]3CC[C@H](O)CC3)c2n1` [Compound 386], for which the IC50 in assay [1] and in assay [2] was at most 100 nM each time.

As for `COC[C@H](C)Nc1ncc2c(OC3C[C@H](C)N(C)[C@@H](C)C3)ncc([C@H]3CC[C@H](O)CC3)c2n1` (stereo partly shown) [Compound 387], the figures for the IC50 in assay [1] and in assay [2] were 100 to 1000 nM and at most 100 nM, respectively.

With `COC[C@H](C)Nc1ncc2c(OC3C[C@@H](C)N(C)[C@H](C)C3)ncc([C@H]3CC[C@H](O)CC3)c2n1` (stereo partly shown) [Compound 388], the 50% inhibitory concentration (IC50) is 100 to 1000 nM in assay [1] and at most 100 nM in assay [2].

Take `C[C@@H](CC(F)(F)F)Nc1ncc2c(OC3CCN(S(C)(=O)=O)CC3)ncc([C@H]3CC[C@H](O)CC3)c2n1` [Compound 389]: the IC50 in assay [1] and in assay [2] was 100 to 1000 nM in each case.

Take `COCCN1C(C)(C)CC(Oc2ncc([C@H]3CC[C@H](O)CC3)c3nc(N[C@@H]4CCOC4)ncc23)CC1(C)C` [Compound 390]: the IC50 in assay [1] and in assay [2] was 100 to 1000 nM in each case.

With `CCN1C(C)(C)CC(Oc2ncc([C@H]3CC[C@H](O)CC3)c3nc(N[C@@H](C)CC(F)(F)F)ncc23)CC1(C)C` [Compound 391], the IC50 in assay [1] and in assay [2] was at most 100 nM throughout.

In the case of `O[C@H]1CC[C@H](c2cnc(OC3CCOCC3)c3cnc(Nc4ccc(-c5nn[nH]n5)cc4)nc32)CC1` [Compound 392], the IC50 in assay [1] and in assay [2] was at most 100 nM each time.

`COC[C@H](C)Nc1ncc2c(O[C@H]3C[C@@H](C(=O)N4CCN(C)CC4)C3)ncc([C@H]3CC[C@H](O)CC3)c2n1` [Compound 393]: the values for the IC50 in assay [1] and in assay [2] were 100 to 1000 nM and at most 100 nM, respectively.

With `C[C@@H](Nc1ncc2c(OC3CCOCC3)ncc([C@H]3CC[C@H](O)CC3)c2n1)C(F)F` [Compound 394], the IC50 in assay [1] and in assay [2] was 100 to 1000 nM throughout.

For `COC[C@H](C)Nc1ncc2c(OC3CCOCC3)ncc(-c3ccc(F)cc3)c2n1` [Compound 395], the IC50 in assay [1] and in assay [2] was 1000 to 10000 nM throughout.

`COC[C@H](C)Nc1ncc2c(OC3CCOCC3)ncc(-c3ccc(C#N)cc3)c2n1` [Compound 396]: the IC50 lay in the range of 1000 to 10000 nM in assay [1] and 100 to 1000 nM in assay [2].

With `O=C(O)c1ccc(Nc2ncc3c(OC4CCOCC4)ncc([C@H]4CC[C@H](O)CC4)c3n2)cc1` [Compound 397], the IC50 in assay [1] and in assay [2] was at most 100 nM in each case.

Turning to `CNC(=O)c1ccc(Nc2ncc3c(OC4CCOCC4)ncc([C@H]4CC[C@H](O)CC4)c3n2)cc1` [Compound 398], the IC50 was 100 to 1000 nM in assay [1] and at most 100 nM in assay [2].

For the molecule `NC(=O)c1ccc(Nc2ncc3c(OC4CCOCC4)ncc([C@H]4CC[C@H](O)CC4)c3n2)cc1` [Compound 399], the IC50 in assay [1] and in assay [2] was at most 100 nM throughout.

For the molecule `COC[C@H](C)Nc1ncc2c(OC3CCOCC3)ncc(-c3ccc(S(C)(=O)=O)cc3)c2n1` [Compound 400], the IC50 in assay [1] was in the range of 1000 to 10000 nM; in assay [2], 100 to 1000 nM.

With `C[C@H](CF)Nc1ncc2c(OC3CCOCC3)ncc([C@H]3CC[C@H](O)CC3)c2n1` [Compound 401], the IC50 in assay [1] and in assay [2] was 100 to 1000 nM throughout.

With `C[C@@H](CC(F)(F)F)Nc1ncc2c(O[C@H]3C[C@@H](CN4CCOCC4)C3)ncc([C@H]3CC[C@H](O)CC3)c2n1` [Compound 402], the IC50 in assay [1] and in assay [2] was at most 100 nM each time.

Consider `COC[C@H](C)Nc1ncc2c(C(F)(F)F)ncc([C@H]3CC[C@H](O)CC3)c2n1` [Compound 403], for which the IC50 in assay [1] and in assay [2] was 1000 to 10000 nM each time.

As to `CC1(Nc2ncc3c(OC4CCOCC4)ncc(-c4cccc(NS(C)(=O)=O)c4)c3n2)CC1` [Compound 404], the IC50 in assay [1] and in assay [2] was 100 to 1000 nM in each case.

On to `CC1(Nc2ncc3c(OC4CCOCC4)ncc(-c4cccc(S(=O)(=O)N5CCC5)c4)c3n2)CC1` [Compound 405], for which the IC50 in assay [1] and in assay [2] was 100 to 1000 nM each time.

On to `C[C@H](CC(F)(F)F)Nc1ncc2c(O[C@H]3C[C@@H](O)C3)ncc([C@H]3CC[C@H](O)CC3)c2n1` [Compound 406], for which the IC50 in assay [1] was 1000 to 10000 nM; in assay [2], at most 100 nM.

As to `C[C@@H](COC(F)F)Nc1ncc2c(O[C@H]3C[C@@H](O)C3)ncc([C@H]3CC[C@H](O)CC3)c2n1` [Compound 407], the results for the IC50 in assay [1] and in assay [2] were 100 to 1000 nM and at most 100 nM, respectively.

On to `C[C@@H](CC(F)(F)F)Nc1ncc2c(O[C@H]3C[C@@H](N4CCOCC4)C3)ncc([C@H]3CC[C@H](O)CC3)c2n1` [Compound 408], for which the IC50 in assay [1] was 100 to 1000 nM; in assay [2] it was at most 100 nM.

Consider `C[C@@H](CC(F)(F)F)Nc1ncc2c(O[C@H]3C[C@@H](O)C3)ncc(-c3ccc(C4(C#N)CC4)cc3)c2n1` [Compound 409], for which the results for the IC50 in assay [1] and in assay [2] were 1000 to 10000 nM and at most 100 nM, respectively.

In the case of `O=C(O)[C@H]1CC[C@H](Nc2ncc3c(OC4CCOCC4)ncc([C@H]4CC[C@H](O)CC4)c3n2)CC1` [Compound 410], the figures for the IC50 in assay [1] and in assay [2] were 1000 to 10000 nM and 100 to 1000 nM, respectively.

For the molecule `C[C@H](Nc1ncc2c(O[C@H]3C[C@@H](O)C3)ncc([C@H]3CC[C@H](O)CC3)c2n1)C(F)F` [Compound 411], the IC50 in assay [1] was 100 to 1000 nM; in assay [2] it was at most 100 nM.

`C[C@@H](CC(F)(F)F)Nc1ncc2c(O[C@@H]3C[C@H]4CC[C@@H](C3)N4C[C@H]3CCCO3)ncc([C@H]3CC[C@H](O)CC3)c2n1` [Compound 412]: the IC50 in assay [1] and in assay [2] was at most 100 nM throughout.

As for `C[C@@H](CC(F)(F)F)Nc1ncc2c(O[C@@H]3C[C@H]4CC[C@@H](C3)N4[C@H]3CCOC3)ncc([C@H]3CC[C@H](O)CC3)c2n1` [Compound 413], the IC50 in assay [1] and in assay [2] was at most 100 nM throughout.

Consider `C[C@@H](CC(F)(F)F)Nc1ncc2c(O[C@@H]3C[C@H]4CC[C@@H](C3)N4C[C@H]3CCOC3)ncc([C@H]3CC[C@H](O)CC3)c2n1` [Compound 414], for which the IC50 in assay [1] and in assay [2] was at most 100 nM in each case.

Consider `C[C@@H](CC(F)(F)F)Nc1ncc2c(O[C@@H]3C[C@H]4CC[C@@H](C3)N4[C@@H]3CCOC3)ncc([C@H]3CC[C@H](O)CC3)c2n1` [Compound 415], for which the IC50 in assay [1] and in assay [2] was at most 100 nM throughout.

Consider `C[C@@H](CC(F)(F)F)Nc1ncc2c(O[C@@H]3C[C@H]4CC[C@@H](C3)N4C[C@@H]3CCOC3)ncc([C@H]3CC[C@H](O)CC3)c2n1` [Compound 416], for which the IC50 in assay [1] and in assay [2] was at most 100 nM each time.

Turning to `CO[C@H]1C[C@@H]1Nc1ncc2c(O[C@H]3C[C@@H](O)C3)ncc([C@H]3CC[C@H](O)CC3)c2n1` [Compound 417], the IC50 in assay [1] and in assay [2] was at most 100 nM each time.

Consider `C[C@@H](CC(F)(F)F)Nc1ncc2c(OC3CC(C)(C)N(C[C@@H]4CCCO4)C(C)(C)C3)ncc([C@H]3CC[C@H](O)CC3)c2n1` [Compound 418], for which the IC50 in assay [1] and in assay [2] was at most 100 nM each time.

As to `COC[C@H](C)Nc1ncc2c(O[C@H]3C[C@H](C(=O)N4CCN(C)CC4)C3)ncc([C@H]3CC[C@H](O)CC3)c2n1` [Compound 419], the IC50 was 100 to 1000 nM in assay [1] and at most 100 nM in assay [2].

These data come from patent US20200291018A1, “TAM KINASE INHIBITORS” (SYROS PHARMACEUTICALS, INC., priority 2017, published 2020).
